Measured values from patent publication US10494414B2, “Immunoglobulin G-binding peptide” (KANEKA CORPORATION, priority 2014, dated 2019).

Key:
[1] = system: Fab region; details: Non-patent Documents 1 and 2; cited from earlier work
[2] = target: T1, Anti-RSV antibody - Fc (Homo sapiens, UniProt P01857); test: Biacore surface plasmon resonance affinity for IgG-Fc of anti-RSV monoclonal antibody; format: binding
T1 construct: a Fc region of a heavy chain is composed of CH2 and CH3; purchased CHUGAI PHARMACEUTICAL CO., LTD; Synagis
Excerpt: (§1) A humanized monoclonal IgG product as a raw material was fragmented into a Fab fragment and a Fc fragment using papain, and only the Fab fragment was separated and purified. Hereinafter, a method for producing IgG-Fc/IgG-Fab derived from anti-RSV monoclonal antibody (generic name: Palivizumab) is described. The term “RSV” is an abbreviation of RS virus. In the present disclosure, when other IgG-Fc and IgG-Fab were used for evaluation, the fragments were basically prepared in a similar method.
(§2) Specifically, a humanized monoclonal IgG product (“Synagis” manufactured by CHUGAI PHARMACEUTICAL CO., LTD., in the case of anti-RS virus monoclonal agent) was dissolved in a buffer for papain treatment (0.1M AcOH—AcONa, 2 mM EDTA, 1 mM cysteine, pH 5.5), and agarose immobilized by papain (“Papain Agarose from papaya latex” manufactured by SIGMA) was added thereto. The mixture was incubated with stirring by a rotator at 37° C. for about 8 hours. The IgG-Fc was purified from the reaction mixture which contained both of a Fab fragment and a Fc fragment and which was separated from the agarose immobilized by papain by recovering the IgG-Fc as a flow-through fraction of an affinity chromatography using Kappa Select column (manufactured by GE Healthcare Bioscience). The IgG-Fab was purified by recovering the IgG-Fab as a flow-through fraction in an affinity chromatography using KanCapA column (manufactured by GE Healthcare Bioscience). The obtained crude IgG-Fc solution was subjected to purification by gel filtration chromatography using Superdex 75 10/300 GL column to obtain IgG-Fc solution. In the chromatography, a standard buffer was used for equilibration and separation. The obtained crude IgG-Fab solution was similarly subjected to purification. […]
(§3) The affinity of the peptide obtained in the above-described Example 1(2) for the Fc region and Fab region of anti-RSV monoclonal antibody was evaluated using a biosensor Biacore3000 (manufactured by GE Healthcare Bioscience) utilizing surface plasmon resonance. […]

[3] = system: Anti-RSV antibody - Fab; test: Biacore surface plasmon resonance affinity for IgG-Fab of anti-RSV monoclonal antibody; format: binding, human
Excerpt: as §1, §2, §3

[4] = system: Anti-EGFR antibody - Fab; test: Biacore surface plasmon resonance affinity for IgG-Fab of anti-EGFR monoclonal antibody; format: binding
Protocol: The affinity of the peptide obtained in the above-described Example 1(2) for the Fc region and Fab region of anti-RSV monoclonal antibody was evaluated using a biosensor Biacore3000 (manufactured by GE Healthcare Bioscience) utilizing surface plasmon resonance. In the present Example, the IgG-Fc or IgG-Fab obtained in the above-described Example 2(1) was immobilized on a sensor tip, and the peptide solution was flowed across the sensor tip to detect the interaction between the two. The IgG-Fab or IgG-Fc was immobilized on a sensor tip CM5 by amine coupling method using N-hydroxysuccinimide (NHS) and N-ethyl-N′-(3-dimethylaminopropyl)carbodiimide hydrochloride (EDC), and ethanolamine was used for blocking. All of the sensor tip and reagents for immobilization was manufactured by GE Healthcare Bioscience. The IgG-Fab solution was diluted to about 10 times using a buffer for immobilization (10 mM AcOH—AcONa, pH 4.5), and the IgG-Fab was immobilized on the sensor tip in accordance with the protocol attached to the Biacore 3000. In addition, a reference cell as negative control was also prepared by activating another flow cell on the tip with EDC/NHS and then immobilizing ethanolamine only. Peptide solutions having concentrations of 16 nM, 64 nM or 256 nM were prepared using a running buffer (20 mM NaH2PO4—Na2HPO4, 150 mM NaCl, 0.005% P-20, pH 7.4). Each peptide solution was added to the sensor tip in a flow rate of 40 μL/min for 1 minute. Bonding response curves at the time of addition (association phase, 1 minute) and after the addition (dissociation phase, 1 minute) were sequentially obtained at a measurement temperature of 25° C. […]
(§4) Also, the affinity of the peptide according to the present invention (SEQ ID NO: 2) for IgG-Fab prepared from anti-EGFR monoclonal antibody (“Erbitux” sold by Bristol-Myers Squibb) and anti-TNFα monoclonal antibody (“Remicade” sold by Mitsubishi Tanabe Pharma Corporation) was evaluated. The IgG-Fab was prepared in a similar manner to the above-described (1), and the affinity was basically evaluated in a similar manner to the above-described (2). […]

[5] = system: Anti-TNFα antibody - Fab; test: Biacore surface plasmon resonance affinity for IgG-Fab of anti-TNFα monoclonal antibody; format: binding
Protocol: The affinity of the peptide obtained in the above-described Example 1(2) for the Fc region and Fab region of anti-RSV monoclonal antibody was evaluated using a biosensor Biacore3000 (manufactured by GE Healthcare Bioscience) utilizing surface plasmon resonance. In the present Example, the IgG-Fc or IgG-Fab obtained in the above-described Example 2(1) was immobilized on a sensor tip, and the peptide solution was flowed across the sensor tip to detect the interaction between the two. The IgG-Fab or IgG-Fc was immobilized on a sensor tip CM5 by amine coupling method using N-hydroxysuccinimide (NHS) and N-ethyl-N′-(3-dimethylaminopropyl)carbodiimide hydrochloride (EDC), and ethanolamine was used for blocking. All of the sensor tip and reagents for immobilization was manufactured by GE Healthcare Bioscience. The IgG-Fab solution was diluted to about 10 times using a buffer for immobilization (10 mM AcOH—AcONa, pH 4.5), and the IgG-Fab was immobilized on the sensor tip in accordance with the protocol attached to the Biacore 3000. […]
as §4
Each peptide was prepared in a similar method to the above-described Example 1 except that the combination of single-stranded oligo DNAs shown in Table 3 was used for preparing expression plasmid. […] As representative data, the affinity for IgG-Fab of anti-TNFα monoclonal antibody was evaluated by a similar manner to the above-described Example 2. […] For example, the value in the left graph is logarithm (Log 10) of a value calculated by dividing an affinity constant (KA) of each peptide by an affinity constant of SEQ ID NO: 2. […]

[6] = target: T2, IgG-Fc of anti-TNFα monoclonal antibody (Homo sapiens, UniProt P01857); test: Binding response versus peptide concentration on immobilized IgG-Fc (Biacore); details: about 10000 RU immobilized, peptide 25-200 nM, response 1 minute after addition, SEQ ID NO: 14 specifically 0.4 to 0.6
T2 construct: a Fc region of a heavy chain is composed of CH2 and CH3; purchased Mitsubishi Tanabe Pharma Corporation Remicade

[7] = system: IgG-Fab of anti-TNFα monoclonal antibody; test: Binding response versus peptide concentration on immobilized IgG-Fab (Biacore); details: about 10000 RU immobilized, peptide 25-200 nM, response 1 minute after addition, SEQ ID NO: 14 specifically 0.4 to 0.6
[8] = system: Fab fragment; test: Association constant of wild Protein G to Fab fragment in Biacore system; format: binding; details: 25° C., pH 7.4
Excerpt: For example, as a binding parameter, association constant (KA) and dissociation constant (KD) can be used ([NT] et al., “Real-Time Analysis Experimental Method for Interaction Between Biological Substances”, Springer-Verlag Tokyo, 1998, p. 41). An association constant between the present invention peptide and a Fc fragment or a Fab fragment can be measured by immobilizing a Fc fragment or a Fab fragment on a sensor tip and adding the present invention peptide into a flow channel under a condition of the temperature of 25° C. and pH 7.4 in Biacore system. In an experiment utilizing Biacore system, the order of a parameter may be largely changed depending on an experimental condition, an analysis method and/or the kind of used original IgG. Under such a circumstance, when an evaluation is also conducted by using a wild Protein G in the same experimental condition and analysis method, it becomes standard whether the measured association constant is larger or not in comparison with the association constant of wild Protein G to a Fab region. The performance of a conventional wild Protein G is not sufficient as a peptide which binds to both of a Fc region and a Fab region of an immunoglobulin G, since the binding force thereof to a Fab region is not sufficient. […] A wild Protein G is easily available as a commercial reagent for study. […]

[9] = Anti-RSV antibody - Fc immobilized, 25° C., pH 7.4, 1:1 binding model
[10] = Anti-RSV antibody - Fab immobilized, 25° C., pH 7.4, 1:1 binding model

For “Protein G: IgG-binding cell wall protein produced by Streptococcus sp. classified into Group G”, the “association constant (KA) to a Fab region, times less than that to a Fc region” value [1] is given as 10 times.
With “SEQ ID NO: 2: IgG-binding peptide (SpG mutant) having the amino acid sequence of SEQ ID NO: 2, with N-terminal Gly-Pro-Leu-Gly-Ser from the vector (TTYKLILNGKTLTGYTTAIAADAATAEIVLKQFANDNGIDGEWTYDDATKTFTVTE; N-terminal vector-derived residues; Immunoglobulin-binding peptide)” the koff [2, 9] was 0.028 s⁻¹, the kon [2, 9] was 97000 s/M and the KA ([2]; Anti-RSV antibody - Fc, KA=kon/koff) was 3.5e+06 M⁻¹. The koff [3, 10] was 0.003 s⁻¹, the kon [3, 10] was 66000 s/M and the KA ([3]; Anti-RSV antibody - Fab, KA=kon/koff) was 2e+07 M⁻¹. It also gave a KA ([4]; KA=kon/koff) of 6.5e+07 M⁻¹, a koff ([4]; peptide 25, 100, 400 nM) of 0.039 s⁻¹ and a kon ([4]; peptide 25, 100, 400 nM) of 252000 s/M. For the same substance, the KA ([5]; KA=kon/koff) was 4e+07 M⁻¹, the koff ([5]; peptide 25, 100, 400 nM) was 0.01 s⁻¹ and the kon ([5]; peptide 25, 100, 400 nM) was 413000 s/M.
For “SEQ ID NO: 14: IgG-binding peptide; difference from SEQ ID NO: 2: Xaa21 = Asp, Xaa28 = Lys (TTYKLILNGKTLTGYTTAIADDAATAEKVLKQFANDNGIDGEWTYDDATKTFTVTE; Immunoglobulin-binding peptide)”, the “inclination of approximate curve of binding response versus peptide concentration” value [6] was “about 0.5” and the “inclination of approximate curve of binding response versus peptide concentration” value [7] was “about 0.5”.
In the case of “wild Protein G: conventional wild Protein G, available as a commercial reagent for study”, the “association constant KA to a Fab fragment, as an order” value [8] is reported as “about 10^5”.
